Test results from the supplement of paper PMC10883282.
± gives the standard deviation of the averaged measurements.

Test system: RD-ES
Assay: relative viability vs DMSO control (72 h) (fraction); higher = more viable cells
Procedure, shortened: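 Sarcoma cell lines went into 384-well plates at densities chosen to reach 80–90% confluence. After 24 h, each well received 2.5 µl of serially diluted compound, with source plates running from 10 mM to 0.0002 mM, and the plates were kept 72 h at 37 °C, 5% CO2, alongside 0.1% DMSO vehicle and a 5 µM positive control. Relative viability was derived from ATPLite readings as percent growth and averaged over up to triplicate wells. The data were then rescaled so that 1 stands for full and 0 for none.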

Structure (SMILES) | relative viability (0.00017 µM) | relative viability (0.00051 µM) | relative viability (0.00152 µM) | relative viability (0.00457 µM) | relative viability (0.01372 µM) | relative viability (0.04115 µM) | relative viability (0.1235 µM) | relative viability (0.3704 µM) | relative viability (1.111 µM) | relative viability (3.333 µM) | relative viability (10 µM)
Cc1ccc(F)c(NC(=O)Nc2ccc(-c3cccc4[nH]nc(N)c34)cc2)c1 [Linifanib] | 1 ± 0.043 | 0.998 ± 0.012 | 0.994 ± 0.011 | 0.978 ± 0.023 | 1 ± 0.028 | 1.01 ± 0.048 | 1 ± 0.014 | 0.982 ± 0.038 | 1.01 ± 0.018 | 0.975 ± 0.022 | 0.983 ± 0.043
CNC(=O)c1ccc(-c2cnc3ncc(Cc4ccc5ncccc5c4)n3n2)cc1F [Capmatinib] | 0.992 ± 0.014 | 1.005 ± 0.0083 | 0.9871 ± 0.0074 | 0.994 ± 0.017 | 0.98 ± 0.021 | 1 ± 0.018 | 1.01 ± 0.023 | 1.03 ± 0.024 | 1.03 ± 0.025 | 1.02 ± 0.011 | 1 ± 0.028
CN1CCC(COc2cnc(-c3cccc(Cn4nc(-c5cccc(C#N)c5)ccc4=O)c3)nc2)CC1 [Tepotinib] | 0.997 ± 0.016 | 1.01 ± 0.013 | 1.01 ± 0.014 | 1 ± 0.013 | 0.971 ± 0.024 | 1 ± 0.017 | 0.99 ± 0.043 | 0.991 ± 0.035 | 0.969 ± 0.029 | 0.953 ± 0.017 | 0.887 ± 0.025
N#CC[C@H](C1CCCC1)n1cc(-c2ncnc3[nH]ccc23)cn1 [Ruxolitinib] | 0.938 ± 0.025 | 0.967 ± 0.014 | 0.95 ± 0.031 | 0.949 ± 0.024 | 0.932 ± 0.025 | 0.939 ± 0.05 | 0.933 ± 0.057 | 0.946 ± 0.029 | 0.939 ± 0.028 | 0.941 ± 0.028 | 0.954 ± 0.065
CC(C)(C)c1cc(NC(=O)Nc2ccc(-c3cn4c(n3)sc3cc(OCCN5CCOCC5)ccc34)cc2)no1 [Quizartinib] | 0.968 ± 0.018 | 0.983 ± 0.028 | 0.993 ± 0.018 | 0.9932 ± 0.0065 | 0.993 ± 0.011 | 0.995 ± 0.005 | 0.986 ± 0.02 | 1 ± 0.025 | 0.991 ± 0.019 | 0.951 ± 0.043 | 0.869 ± 0.035
COc1c(OCCCN2CCOCC2)ccc2c1N=C(NC(=O)c1cnc(N)nc1)N1CCN=C21 [Copanlisib] | 0.977 ± 0.031 | 0.932 ± 0.023 | 0.947 ± 0.056 | 0.638 ± 0.087 | 0.571 ± 0.05 | 0.494 ± 0.023 | 0.344 ± 0.013 | 0.218 ± 0.0085 | 0.0703 ± 0.0047 | 0.007 ± 0.00036 | 0.0101 ± 0.0011
Cc1ccc(NC(=O)c2ccc(CN3CCN(C)CC3)cc2)cc1Nc1nc(-c2cccnc2)cs1 [Masitinib] | 0.959 ± 0.018 | 0.957 ± 0.034 | 0.9656 ± 0.0031 | 0.965 ± 0.032 | 0.948 ± 0.041 | 0.985 ± 0.011 | 0.912 ± 0.047 | 0.86 ± 0.05 | 0.726 ± 0.043 | 0.519 ± 0.027 | 0.183 ± 0.0068
Cn1cc(-c2cc3c(N4CCN(c5ncc([C@@](C)(N)c6ccc(F)cc6)cn5)CC4)ncnn3c2)cn1 [Avapritinib] | 0.927 ± 0.028 | 0.928 ± 0.034 | 0.934 ± 0.015 | 0.922 ± 0.026 | 0.936 ± 0.02 | 0.932 ± 0.013 | 0.9089 ± 0.0059 | 0.884 ± 0.025 | 0.84 ± 0.044 | 0.787 ± 0.047 | 0.716 ± 0.012
O=C(Cc1ccc(-c2ccc(OCCN3CCOCC3)cc2)cn1)NCc1ccccc1 [KX2-391] | 0.984 ± 0.025 | 1.002 ± 0.0063 | 1.01 ± 0.029 | 0.996 ± 0.017 | 0.973 ± 0.022 | 0.674 ± 0.021 | 0.0817 ± 0.0038 | 0.0547 ± 0.0048 | 0.0489 ± 0.0023 | 0.0417 ± 0.0023 | 0.0395 ± 0.0014
